Measured values as given in ChEMBL document CHEMBL4138123, “Design, synthesis and biological evaluation of novel pyrazolochalcones as potential modulators of PI3K/Akt/mTOR pathway and inducers of apoptosis in breast cancer cells” (Eur J Med Chem, 2017).

Experiments:
Assay type in all cases: functional
RPMI-8226 = assay: Cytotoxicity against human RPMI8226 cells assessed as cell growth at 1 uM after 48 hrs by sulforhodamine B assay relative to control; settings: RPMI-8226, 48 h, read-out: Activity
HCT-116 = assay: Cytotoxicity against human HCT116 cells assessed as cell growth at 10 uM after 48 hrs by sulforhodamine B assay relative to control; settings: HCT-116, 48 h, read-out: Activity
786-0 = assay: Cytotoxicity against human 786-0 cells assessed as cell growth at 10 uM after 48 hrs by sulforhodamine B assay relative to control; settings: 786-0, 48 h, read-out: Activity
TK-10 [1] = assay: Cytotoxicity against human TK10 cells assessed as growth inhibition after 48 hrs by sulforhodamine B assay; settings: TK-10, 48 h
ACHN [2] = assay: Cytotoxicity against human ACHN cells assessed as cell growth at 0.01 uM after 48 hrs by sulforhodamine B assay relative to control; settings: read-out: Activity
Malme-3M [3] = assay: Cytotoxicity against human MALME-3M cells assessed as cell growth at 0.01 uM after 48 hrs by sulforhodamine B assay relative to control; settings: read-out: Activity
K562 [4] = assay: Cytotoxicity against human K562 cells assessed as cell growth at 0.1 uM after 48 hrs by sulforhodamine B assay relative to control; settings: K562, 48 h, read-out: Activity
MOLT-4 = assay: Cytotoxicity against human MOLT4 cells assessed as cell growth at 10 uM after 48 hrs by sulforhodamine B assay relative to control; settings: MOLT-4, 48 h, read-out: Activity
TK-10 [5] = assay: Cytotoxicity against human TK10 cells assessed as cell growth at 0.01 uM after 48 hrs by sulforhodamine B assay relative to control; settings: TK-10, 48 h, read-out: Activity
SF-539 = assay: Cytotoxicity against human SF539 cells assessed as cell growth at 0.1 uM after 48 hrs by sulforhodamine B assay relative to control; settings: SF-539, 48 h, read-out: Activity
TK-10 [6] = assay: Cytotoxicity against human TK10 cells assessed as cell growth at 0.1 uM after 48 hrs by sulforhodamine B assay relative to control; settings: TK-10, 48 h, read-out: Activity
KM12 [7] = assay: Cytotoxicity against human KM12 cells assessed as cell growth at 1 uM after 48 hrs by sulforhodamine B assay relative to control; settings: KM12, 48 h, read-out: Activity
MDA-MB-468 [8] = assay: Cytotoxicity against human MDA-MB-468 cells assessed as cell growth at 100 uM after 48 hrs by sulforhodamine B assay relative to control; settings: MDA-MB-468, 48 h, read-out: Activity
HCT-15 = assay: Cytotoxicity against human HCT15 cells assessed as growth inhibition after 48 hrs by sulforhodamine B assay; settings: HCT-15, 48 h
RXF 393 = assay: Cytotoxicity against human RXF393 cells assessed as cell growth at 1 uM after 48 hrs by sulforhodamine B assay relative to control; settings: RXF 393, 48 h, read-out: Activity
HT-29 [9] = assay: Cytotoxicity against human HT-29 cells assessed as cell growth at 0.01 uM after 48 hrs by sulforhodamine B assay relative to control; settings: HT-29, 48 h, read-out: Activity
BT-549 = assay: Cytotoxicity against human BT549 cells assessed as cell growth at 10 uM after 48 hrs by sulforhodamine B assay relative to control; settings: BT-549, 48 h, read-out: Activity
SK-MEL-28 = assay: Cytotoxicity against human SK-MEL-28 cells assessed as cell growth at 0.01 uM after 48 hrs by sulforhodamine B assay relative to control; settings: SK-MEL-28, 48 h, read-out: Activity
UO-31 = assay: Cytotoxicity against human UO31 cells assessed as cell growth at 0.01 uM after 48 hrs by sulforhodamine B assay relative to control; settings: UO-31, 48 h, read-out: Activity
Malme-3M [10] = assay: Cytotoxicity against human MALME-3M cells assessed as cell growth at 10 uM after 48 hrs by sulforhodamine B assay relative to control; settings: read-out: Activity
K562 [11] = assay: Cytotoxicity against human K562 cells assessed as cell growth at 100 uM after 48 hrs by sulforhodamine B assay relative to control; settings: K562, 48 h, read-out: Activity
MDA-MB-435 = assay: Cytotoxicity against human MDA-MB-435 cells assessed as cell growth at 100 uM after 48 hrs by sulforhodamine B assay relative to control; settings: MDA-MB-435, 48 h, read-out: Activity
Malme-3M [12] = assay: Cytotoxicity against human MALME-3M cells assessed as cell growth at 100 uM after 48 hrs by sulforhodamine B assay relative to control; settings: read-out: Activity
NCI/ADR-RES = assay: Cytotoxicity against human NCI/ADR-RES cells assessed as cell growth at 100 uM after 48 hrs by sulforhodamine B assay relative to control; settings: read-out: Activity
MDA-MB-468 [13] = assay: Cytotoxicity against human MDA-MB-468 cells assessed as cell growth at 10 uM after 48 hrs by sulforhodamine B assay relative to control; settings: MDA-MB-468, 48 h, read-out: Activity
SK-OV-3 = assay: Cytotoxicity against human SKOV3 cells assessed as cell growth at 1 uM after 48 hrs by sulforhodamine B assay relative to control; settings: SK-OV-3, 48 h, read-out: Activity
MCF7 = assay: Cytotoxicity against human MCF7 cells assessed as growth inhibition after 48 hrs by sulforhodamine B assay; settings: MCF7, 48 h
HCC 2998 = assay: Cytotoxicity against human HCC2998 cells assessed as cell growth at 1 uM after 48 hrs by sulforhodamine B assay relative to control; settings: HCC 2998, 48 h, read-out: Activity
NCI-H23 = assay: Cytotoxicity against human NCI-H23 cells assessed as cell growth at 0.01 uM after 48 hrs by sulforhodamine B assay relative to control; settings: NCI-H23, 48 h, read-out: Activity
HT-29 [14] = assay: Cytotoxicity against human HT-29 cells assessed as cell growth at 100 uM after 48 hrs by sulforhodamine B assay relative to control; settings: HT-29, 48 h, read-out: Activity
A549 = assay: Cytotoxicity against human A549/ATCC cells assessed as cell growth at 10 uM after 48 hrs by sulforhodamine B assay relative to control; settings: A549, 48 h, read-out: Activity
ACHN [15] = assay: Cytotoxicity against human ACHN cells assessed as cell growth at 100 uM after 48 hrs by sulforhodamine B assay relative to control; settings: read-out: Activity
ACHN [16] = assay: Cytotoxicity against human ACHN cells assessed as cell growth at 10 uM after 48 hrs by sulforhodamine B assay relative to control; settings: read-out: Activity
CCRF-CEM = assay: Cytotoxicity against human CCRF-CEM cells assessed as cell growth at 100 uM after 48 hrs by sulforhodamine B assay relative to control; settings: read-out: Activity
KM12 [17] = assay: Cytotoxicity against human KM12 cells assessed as growth inhibition after 48 hrs by sulforhodamine B assay; settings: KM12, 48 h
NCI-H226 = assay: Cytotoxicity against human NCI-H226 cells assessed as cell growth at 100 uM after 48 hrs by sulforhodamine B assay relative to control; settings: NCI-H226, 48 h, read-out: Activity

## COc1cc(-c2cc(/C=C/C(=O)c3ccc4c(c3)OCO4)[nH]n2)cc(OC)c1OC
RPMI-8226
  growth at 1 µM: 36%
HCT-116
  growth at 10 µM: -60%
786-0
  growth at 10 µM: -30%
TK-10 [1]
  LC50: > 100 µM
  TGI: 5.73 µM
ACHN [2]
  growth at 0.01 µM: 108%
Malme-3M [3]
  growth at 0.01 µM: 93%
K562 [4]
  growth at 0.1 µM: 102%
MOLT-4
  growth at 10 µM: -4%
TK-10 [5]
  growth at 0.01 µM: 89%
SF-539
  growth at 0.1 µM: 99%
TK-10 [6]
  growth at 0.1 µM: 87%
KM12 [7]
  growth at 1 µM: 89%
MDA-MB-468 [8]
  growth at 100 µM: -85%
HCT-15
  LC50: > 100 µM
  TGI: 7.19 µM
RXF 393
  growth at 1 µM: 80%
HT-29 [9]
  growth at 0.01 µM: 99%
BT-549
  growth at 10 µM: -20%
SK-MEL-28
  growth at 0.01 µM: 100%
UO-31
  growth at 0.01 µM: 86%
Malme-3M [10]
  growth at 10 µM: 26%
K562 [11]
  growth at 100 µM: -10%
MDA-MB-435
  growth at 100 µM: 4%
Malme-3M [12]
  growth at 100 µM: -56%
NCI/ADR-RES
  growth at 100 µM: 1%
MDA-MB-468 [13]
  growth at 10 µM: -88%
SK-OV-3
  growth at 1 µM: 102%
MCF7
  LC50: > 100 µM
HCC 2998
  growth at 1 µM: 106%
NCI-H23
  growth at 0.01 µM: 96%
HT-29 [14]
  growth at 100 µM: -73%
A549
  growth at 10 µM: 26%
ACHN [15]
  growth at 100 µM: -69%
ACHN [16]
  growth at 10 µM: -73%
CCRF-CEM
  growth at 100 µM: -13%

## COc1cc(-c2cc(/C=C/C(=O)c3ccc(Cl)c(Cl)c3)[nH]n2)cc(OC)c1OC
RPMI-8226
  growth at 1 µM: 33%
HCT-116
  growth at 10 µM: 16%
786-0
  growth at 10 µM: 50%
TK-10 [1]
  LC50: > 100 µM
  TGI: 43.2 µM
ACHN [2]
  growth at 0.01 µM: 107%
Malme-3M [3]
  growth at 0.01 µM: 94%
K562 [4]
  growth at 0.1 µM: 106%
MOLT-4
  growth at 10 µM: 24%
TK-10 [5]
  growth at 0.01 µM: 90%
SF-539
  growth at 0.1 µM: 94%
TK-10 [6]
  growth at 0.1 µM: 91%
KM12 [7]
  growth at 1 µM: 85%
MDA-MB-468 [8]
  growth at 100 µM: -37%
RXF 393
  growth at 1 µM: 81%
HT-29 [9]
  growth at 0.01 µM: 100%
BT-549
  growth at 10 µM: 47%
SK-MEL-28
  growth at 0.01 µM: 108%
UO-31
  growth at 0.01 µM: 85%
Malme-3M [10]
  growth at 10 µM: 72%
K562 [11]
  growth at 100 µM: -7%
MDA-MB-435
  growth at 100 µM: 6%
Malme-3M [12]
  growth at 100 µM: 24%
NCI/ADR-RES
  growth at 100 µM: 5%
MDA-MB-468 [13]
  growth at 10 µM: -13%
SK-OV-3
  growth at 1 µM: 89%
MCF7
  LC50: > 100 µM
  TGI: > 100 µM
HCC 2998
  growth at 1 µM: 102%
KM12 [17]
  LC50: > 100 µM
  TGI: > 100 µM
NCI-H23
  growth at 0.01 µM: 95%
HT-29 [14]
  growth at 100 µM: 3%
A549
  growth at 10 µM: 68%
ACHN [15]
  growth at 100 µM: 16%
ACHN [16]
  growth at 10 µM: 67%
CCRF-CEM
  growth at 100 µM: -15%

## COc1ccc(-c2cc(/C=C/C(=O)c3ccc(N)cc3)[nH]n2)cc1OC
RPMI-8226
  growth at 1 µM: 59%
HCT-116
  growth at 10 µM: -73%
786-0
  growth at 10 µM: -48%
TK-10 [1]
  GI50: 1.09 µM
  LC50: 48.7 µM
  TGI: 23 µM
ACHN [2]
  growth at 0.01 µM: 93%
Malme-3M [3]
  growth at 0.01 µM: 104%
K562 [4]
  growth at 0.1 µM: 98%
MOLT-4
  growth at 10 µM: 6%
TK-10 [5]
  growth at 0.01 µM: 102%
SF-539
  growth at 0.1 µM: 97%
TK-10 [6]
  growth at 0.1 µM: 100%
KM12 [7]
  growth at 1 µM: 88%
MDA-MB-468 [8]
  growth at 100 µM: -73%
HCT-15
  GI50: 1.7 µM
  LC50: 33 µM
  TGI: 5.37 µM
RXF 393
  growth at 1 µM: 94%
HT-29 [9]
  growth at 0.01 µM: 98%
BT-549
  growth at 10 µM: -91%
SK-MEL-28
  growth at 0.01 µM: 92%
UO-31
  growth at 0.01 µM: 92%
Malme-3M [10]
  growth at 10 µM: 37%
K562 [11]
  growth at 100 µM: -3%
MDA-MB-435
  growth at 100 µM: -72%
Malme-3M [12]
  growth at 100 µM: -75%
NCI/ADR-RES
  growth at 100 µM: 2%
MDA-MB-468 [13]
  growth at 10 µM: -65%
SK-OV-3
  growth at 1 µM: 97%
MCF7
  GI50: 2.28 µM
  LC50: 71.2 µM
  TGI: 8.48 µM
HCC 2998
  growth at 1 µM: 105%
KM12 [17]
  GI50: 1.68 µM
  LC50: 6.67 µM
  TGI: 3.35 µM
NCI-H226
  growth at 100 µM: -55%
NCI-H23
  growth at 0.01 µM: 103%
HT-29 [14]
  growth at 100 µM: -59%
ACHN [15]
  growth at 100 µM: -95%
ACHN [16]
  growth at 10 µM: -82%
CCRF-CEM
  growth at 100 µM: -22%
